{"source": "patent US6987106B1", "about": "“1,4-diazabicyclo[3.2.2]nonane-4-carboxylates and carboxamide derivates, production and use thereof in therapeutics” (Sanofi-Aventis, priority 1999, dated 2006)"}
{"smiles": "Br.CN(C(=O)N1CCN2CCC1CC2)c1ccccc1", "values": [{"measurement": "melting point", "result": "206 to 207", "unit": "°C"}]}
